The target of series [1] is T1, bovine serum albumin (BSA) (Bos taurus, UniProt P02769). Kind of series: Fluorescence quenching of BSA by PFAS. In kind it is binding. The conditions noted are these: for nHill (Hill coefficient, binding cooperativity): Hill model fit, 25°C and 35°C, independent of temperature; for shift in wavelength of maximum fluorescence emission of BSA: maximum shift on PFAS binding (Figure S5).

For series [2], the target named is T1, bovine serum albumin (BSA). Briefly: Equilibrium dialysis. It counts as binding. Particulars: for f (fraction of bound PFAS) / KPW (protein/water partition coefficient): 37°C, standard error in parentheses; for f (fraction of bound PFAS): 10 µM BSA in PBS. For orientation: In equilibrium dialysis free small molecules cross a membrane that holds back macromolecules.

Series [3] addresses T1, bovine serum albumin (BSA). The conditions noted are these: ref Allendorf et al. (2019), cited from earlier work; for Ka (association constant): PFAS-BSA binding.
A further series deals with serum albumin. Particulars: ref Bischel et al. (2011); cited from earlier work.

Where two headings read alike, the source gives them in different places.

T1 sequence (P02769 25-607): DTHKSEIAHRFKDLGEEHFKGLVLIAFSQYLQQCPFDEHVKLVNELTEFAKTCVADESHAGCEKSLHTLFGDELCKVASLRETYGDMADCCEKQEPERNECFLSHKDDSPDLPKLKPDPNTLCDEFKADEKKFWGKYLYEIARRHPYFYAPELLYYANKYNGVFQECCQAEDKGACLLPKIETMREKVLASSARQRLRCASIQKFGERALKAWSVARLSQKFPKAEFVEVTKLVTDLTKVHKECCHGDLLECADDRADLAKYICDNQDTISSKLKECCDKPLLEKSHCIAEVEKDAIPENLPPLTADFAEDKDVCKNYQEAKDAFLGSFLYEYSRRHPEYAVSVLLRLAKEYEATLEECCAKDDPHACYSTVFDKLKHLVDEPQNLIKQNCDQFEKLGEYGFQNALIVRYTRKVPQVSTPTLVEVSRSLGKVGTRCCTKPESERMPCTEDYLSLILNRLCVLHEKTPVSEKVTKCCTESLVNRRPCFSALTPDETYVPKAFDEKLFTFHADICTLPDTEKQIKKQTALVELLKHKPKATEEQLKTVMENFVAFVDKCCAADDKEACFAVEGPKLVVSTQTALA

For the compound `O=S(=O)(O)C(F)(F)C(F)(F)C(F)(F)C(F)(F)C(F)(F)C(F)(F)C(F)(F)C(F)(F)F` [PFOS, perfluorooctanesulfonic acid], in series [1], the “nHill (Hill coefficient, binding cooperativity)” value (from here on “nHill”) is “positive binding cooperativity” and the “shift in wavelength of maximum fluorescence emission of BSA” value (from here on “shift in wavelength”) is −7 nm. In addition, the “f (fraction of bound PFAS)” value in series [2] was 0.942 (0.004). Besides, the “KPW (protein/water partition coefficient)” value in series [2] (PFAS:BSA molar ratio 0.1:1) is on record as 3.39 (0.27) 10^5. Moreover, the “Ka (association constant)” value in series [3] is recorded as 32 (4.9) 10^5 M^−1.

With `O=C(O)C(F)(F)C(F)(F)C(F)(F)C(F)(F)C(F)(F)C(F)(F)C(F)(F)F` [PFOA, perfluorooctanoic acid], in series [1], the “nHill” value was “positive binding cooperativity”. In series [2], the Kd (as a rule, the concentration at which binding is half-saturated) was 2.65 µM and the “f (fraction of bound PFAS)” value is given as 0.755 (0.038). Besides, in series [2] (PFAS:BSA molar ratio 0.1:1), the “KPW (protein/water partition coefficient)” value is 0.66 (0.13) 10^5. In series [3], the “Ka (association constant)” value is given as 11 (1.1) 10^5 M^−1 and the “f (fraction of bound PFAS)” value is on record as 0.44. Further, the “f (fraction of bound PFAS)” value in the series on serum albumin is given as at least 0.99.

As for `O=S(=O)(O)C(F)(F)C(F)(F)C(F)(F)C(F)(F)F` [PFBS, perfluorobutanesulfonic acid], in series [1] (1.25 µM BSA, pH 7.4 PBS, values from Table S3), the “fa (fractional accessibility, modified Stern-Volmer equation)” value is ~ 0.3. Also, in series [1], the “nHill” value is given as below 1 and the “shift in wavelength” value is “do not show marked shifts”. Also, the “f (fraction of bound PFAS)” value in series [2] was 0.249 (0.064). Besides, the “KPW (protein/water partition coefficient)” value in series [2] (PFAS:BSA molar ratio 2:1) was 0.07 (0.02) 10^5. Moreover, in series [3], the “Ka (association constant)” value was 1.1 (0.28) 10^5 M^−1 and the “f (fraction of bound PFAS)” value was 0.44. In the series on serum albumin, the “f (fraction of bound PFAS)” value is recorded as at least 0.99.

In the case of `O=C(O)C(F)(OC(F)(F)C(F)(F)C(F)(F)F)C(F)(F)F` (stereo not shown) [Gen X, 2,3,3,3-tetrafluoro-2-(heptafluoropropoxy)propanoate], in series [1], the “nHill” value is listed as “noncooperative” and the “shift in wavelength” value is on record as “do not show marked shifts”. Further, in series [2], the “f (fraction of bound PFAS)” value is 0.265 (0.006). For the same compound, the “KPW (protein/water partition coefficient)” value in series [2] (PFAS:BSA molar ratio 2:1) is listed as 0.07 (0.002) 10^5. The “Ka (association constant)” value in series [3] is 0.23 (0.05) 10^5 M^−1.

For `O=S(=O)(O)C(F)(F)C(F)(F)C(F)(F)C(F)(F)C(F)(F)C(F)(F)F` [PFHxS, perfluorohexanesulfonic acid], in series [1], the “nHill” value is “positive binding cooperativity” and the “shift in wavelength” value is −10 nm. In addition, in series [2], the Kd was 1.54 µM and the “f (fraction of bound PFAS)” value was 0.842 (0.008). Further, in series [2] (PFAS:BSA molar ratio 0.1:1), the “KPW (protein/water partition coefficient)” value is 1.11 (0.06) 10^5. For the same compound, in series [3], the “Ka (association constant)” value was 44 (3.5) 10^5 M^−1 and the “f (fraction of bound PFAS)” value is reported as 0.62. The “f (fraction of bound PFAS)” value in the series with serum albumin is reported as at least 0.99.

`O=C(O)C(F)(F)C(F)(F)C(F)(F)C(F)(F)C(F)(F)C(F)(F)C(F)(F)C(F)(F)F` [PFNA, perfluorononanoic acid]: in series [1], the “nHill” value was “noncooperative” and the “shift in wavelength” value is reported as −13 nm. In series [2], the “f (fraction of bound PFAS)” value is 0.975 (0.005). Besides, in series [2] (PFAS:BSA molar ratio 0.1:1), the “KPW (protein/water partition coefficient)” value was 8.52 (1.62) 10^5. Moreover, the “Ka (association constant)” value in series [3] is 14 (2.2) 10^5 M^−1.

With `O=C(O)C(F)(F)C(F)(F)C(F)(F)C(F)(F)C(F)(F)C(F)(F)C(F)(F)C(F)(F)C(F)(F)F` [PFDA, perfluorodecanoic acid], in series [1], the “nHill” value is below 1 and the “shift in wavelength” value is −10 nm. Also, the “f (fraction of bound PFAS)” value in series [2] is given as 0.983 (0.004). The “KPW (protein/water partition coefficient)” value in series [2] (PFAS:BSA molar ratio 0.1:1) is reported as 12.66 (3.23) 10^5. The “Ka (association constant)” value in series [3] is given as 36 (3.1) 10^5 M^−1.

The record behind these values is paper PMC8612954 (Chemosphere, 2021).
